According to patent publication EP0291321A2, “Element and method for determination of creatinine or creatine” (EASTMAN KODAK COMPANY (a New Jersey corporation), priority 1987, dated 1988):

Molecular target: T1, sarcosine oxidase (Bacillus sp., UniProt P40859)
T1 sequence (P40859 1-390): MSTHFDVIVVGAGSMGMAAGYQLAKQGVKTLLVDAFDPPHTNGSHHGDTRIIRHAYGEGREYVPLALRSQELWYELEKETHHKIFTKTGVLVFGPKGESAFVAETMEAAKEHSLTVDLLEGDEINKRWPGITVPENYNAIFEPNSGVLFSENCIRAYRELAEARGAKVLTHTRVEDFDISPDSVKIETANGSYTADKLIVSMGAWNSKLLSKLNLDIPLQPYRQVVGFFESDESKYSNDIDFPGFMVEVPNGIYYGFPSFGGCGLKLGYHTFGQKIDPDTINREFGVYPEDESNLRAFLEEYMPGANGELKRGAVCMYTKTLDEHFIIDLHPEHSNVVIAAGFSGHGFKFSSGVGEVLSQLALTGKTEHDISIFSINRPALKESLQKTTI
Test: sarcosine oxidase activity on substrate at various pH (rate of change in absorbance per minute)
Type: biochemical
Settings: for Ratio (B/A): rate with N-ethyl glycine divided by rate with sarcosine
Method: Separate assays at various pH were conducted to determine the rate of change in absorbance per minute (ΔA/min) for sarcosine oxidase activity on its substrate sarcosine, and on N-ethyl glycine. The assay is based on the following reactions. [drawing 1]

Row | rate of change in absorbance per minute (ΔA/min) for sarcosine oxidase activity (pH 6.5) | Ratio (B/A) (pH 6.5) | rate of change in absorbance per minute (ΔA/min) for sarcosine oxidase activity (pH 7.0) | Ratio (B/A) (pH 7.0) | rate of change in absorbance per minute (ΔA/min) for sarcosine oxidase activity (pH 7.5) | Ratio (B/A) (pH 7.5) | SMILES
1 | 0.017 ΔA/min | 0.011 | 0.053 ΔA/min | 0.024 | 0.134 ΔA/min | 0.048 | CCNCC(=O)O [N-Ethyl Glycine, N-ethyl glycine]
2 | 1.56 ΔA/min | – | 2.20 ΔA/min | – | 2.76 ΔA/min | – | CNCC(=O)O [Sarcosine, sarcosine]
